In US7097865B2, “Inhibition of CYP450 1A2, 2A6, 2C9, 2C19, 2D6, 2E1, and 3A4 in cryopreserved human hepatocytes by a Tripterygium Wilfordii Hook. F. extract” (Novemed Group Limited, priority 2002, dated 2006):

Tests used:
CYP2A6 = CYP2A6 (Homo sapiens, UniProt P11509); conditions: Tranylcypromine 3 μM
CYP1A2 = CYP1A2 (Homo sapiens, UniProt P05177); assay: in vitro; conditions: both, hepatocytes
Source text: CYP1A2 activity was characterized by the formation of acetaminophen from phenacetin.

CYP2C19 = CYP2C19 (Homo sapiens, UniProt P33261); assay: in vitro; conditions: both, pooled cryopreserved human hepatocytes in suspension, probe S-mephenytoin (20 μM)
CYP2C9 [1] = molecular target: T1, CYP2C9 (Homo sapiens, UniProt P11712); conditions: Sulfaphenazole 10 μM
CYP2C9 [2] = molecular target: T1, CYP2C9; assay: in vitro; conditions: both, hepatocytes

Sequence of CYP2C19 (P33261 whole entry): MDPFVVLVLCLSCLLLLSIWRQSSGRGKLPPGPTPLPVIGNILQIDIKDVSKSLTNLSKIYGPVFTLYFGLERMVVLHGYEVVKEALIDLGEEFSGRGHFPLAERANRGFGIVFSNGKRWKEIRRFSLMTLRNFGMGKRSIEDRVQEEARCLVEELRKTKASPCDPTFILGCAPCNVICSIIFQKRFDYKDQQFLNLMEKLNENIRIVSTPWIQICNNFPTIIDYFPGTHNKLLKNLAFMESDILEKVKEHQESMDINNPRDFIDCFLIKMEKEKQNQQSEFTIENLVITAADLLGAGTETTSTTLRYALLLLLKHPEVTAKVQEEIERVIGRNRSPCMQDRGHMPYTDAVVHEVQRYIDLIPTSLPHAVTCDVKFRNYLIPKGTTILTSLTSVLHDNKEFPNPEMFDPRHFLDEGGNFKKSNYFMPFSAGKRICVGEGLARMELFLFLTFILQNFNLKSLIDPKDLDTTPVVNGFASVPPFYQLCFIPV
Sequence of CYP1A2 (P05177 whole entry): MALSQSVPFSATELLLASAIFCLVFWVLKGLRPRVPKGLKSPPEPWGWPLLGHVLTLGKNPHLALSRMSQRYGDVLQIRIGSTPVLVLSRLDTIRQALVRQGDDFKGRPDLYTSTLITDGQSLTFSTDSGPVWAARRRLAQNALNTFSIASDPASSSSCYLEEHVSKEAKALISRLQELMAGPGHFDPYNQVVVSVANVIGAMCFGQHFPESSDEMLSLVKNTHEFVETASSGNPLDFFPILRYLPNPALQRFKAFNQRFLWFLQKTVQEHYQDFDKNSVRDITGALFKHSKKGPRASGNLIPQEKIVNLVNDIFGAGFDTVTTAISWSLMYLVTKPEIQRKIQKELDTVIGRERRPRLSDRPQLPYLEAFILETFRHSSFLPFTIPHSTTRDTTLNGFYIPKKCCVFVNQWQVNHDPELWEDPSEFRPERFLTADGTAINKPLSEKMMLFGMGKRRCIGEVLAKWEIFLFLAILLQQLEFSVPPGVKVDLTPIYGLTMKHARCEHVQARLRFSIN
T1 sequence (P11712 whole entry): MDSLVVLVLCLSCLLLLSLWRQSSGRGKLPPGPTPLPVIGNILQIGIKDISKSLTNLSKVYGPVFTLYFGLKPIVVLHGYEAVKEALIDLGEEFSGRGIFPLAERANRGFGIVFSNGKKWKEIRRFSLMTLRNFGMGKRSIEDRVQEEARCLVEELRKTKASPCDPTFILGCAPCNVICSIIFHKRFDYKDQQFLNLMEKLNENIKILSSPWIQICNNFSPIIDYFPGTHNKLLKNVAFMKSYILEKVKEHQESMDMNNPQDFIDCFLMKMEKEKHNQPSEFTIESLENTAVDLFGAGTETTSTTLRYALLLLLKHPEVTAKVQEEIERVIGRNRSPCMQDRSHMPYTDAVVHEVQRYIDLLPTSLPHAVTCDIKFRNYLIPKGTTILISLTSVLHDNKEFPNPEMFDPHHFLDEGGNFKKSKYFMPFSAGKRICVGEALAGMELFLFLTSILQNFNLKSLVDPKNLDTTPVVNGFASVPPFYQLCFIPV
Sequence of CYP2A6 (P11509 whole entry): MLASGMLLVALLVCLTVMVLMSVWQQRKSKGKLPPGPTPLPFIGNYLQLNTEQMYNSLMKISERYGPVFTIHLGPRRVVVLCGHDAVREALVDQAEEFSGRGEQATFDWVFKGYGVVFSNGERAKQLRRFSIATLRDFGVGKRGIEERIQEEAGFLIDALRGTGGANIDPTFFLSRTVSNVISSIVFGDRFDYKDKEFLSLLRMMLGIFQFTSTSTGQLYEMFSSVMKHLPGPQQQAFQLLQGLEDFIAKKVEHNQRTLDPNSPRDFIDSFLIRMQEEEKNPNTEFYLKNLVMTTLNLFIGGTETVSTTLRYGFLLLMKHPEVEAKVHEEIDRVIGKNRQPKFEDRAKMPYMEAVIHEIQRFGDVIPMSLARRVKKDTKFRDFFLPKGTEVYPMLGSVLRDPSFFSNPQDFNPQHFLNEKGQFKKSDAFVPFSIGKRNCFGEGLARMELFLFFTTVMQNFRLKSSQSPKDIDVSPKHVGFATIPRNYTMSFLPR

Compound: N[C@@H]1C[C@H]1c1ccccc1 (racemic) [Tranylcypromine, tranylcypromine]
- CYP2A6 % Inhibition (CYP2A6): 64.1%
- CYP2A6 activity % VC (CYP2A6): 35.9%

Compound: Cc1nc2c([nH]1)c(=O)n(C)c(=O)n2Cc1ccco1 [Furafylline, furafylline]
- activity at 60 min, 1 μM (CYP1A2): 27.9%
- inhibition at 60 min, 1 μM (CYP1A2): 72.1%

Compound: COc1ccc2[nH]c([S+]([O-])Cc3ncc(C)c(OC)c3C)nc2c1 (centres unmarked) [Omeprazole, omeprazole]
- activity at 60 min, 25 μM (CYP2C19): 73.6%
- inhibition at 60 min, 25 μM (CYP2C19): 26.4%

Compound: Nc1ccc(S(=O)(=O)Nc2ccnn2-c2ccccc2)cc1 [Sulfaphenazole, sulfaphenazole]
- CYP2C9 % Inhibition (CYP2C9 [1]): 95.0%
- activity at 60 min, 10 μM (CYP2C9 [2]): 5.02%
